In patent publication US5827516A, “Immunomodulatory peptides” (President and Fellows of Harvard College, priority 1995, dated 1998):
Ends that are not written are not given here.

Key:
HLA-DR1 [1] = target: T1, HLA-DR1 (Homo sapiens, UniProt P01903+P01911, A100R/D57E/F55L/F60I/F76Y/I96L/L162R/M171V/P40L/Q125E/R42F/V115G/Y59C); assay: Resistance to SDS-induced chain dissociation of HLA-DR1 (SDS-PAGE); type: binding
T1 construct: made in house; host or cells: Sf9 insect cells

HLA-DR1 [2] = target: T1, HLA-DR1; assay: Competition against 125I-labeled HA 307-319 for binding to "empty" HLA-DR1

| Molecule | Ki (HLA-DR1 [2]) | further results |
| --- | --- | --- |
| CSCC[C@H](NC(=O)[C@H](CCCNC(=N)N)NC(=O)[C@H](CCSC)NC(=O)[C@H](CCCCN)NC(=O)[C@H](CO)NC(=O)[C@@H](NC(=O)[C@@H]1CCCN1C(=O)[C@H](CCCCN)NC(=O)[C@@H]1CCCN1C(=O)[C@@H]1CCCN1C(=O)[C@H](CCCCN)NC(=O)[C@@H]1CCCN1C(=O)[C@@H](N)CC(C)C)C(C)C)C(=O)N[C@@H](C)C(=O)N[C@H](C(=O)O)[C@@H](C)O [Ii 97-111, reference compound] | – | able to confer resistance to SDS-induced α-β chain dissociation of "empty" DR1 (HLA-DR1 [1]): Neither; able to compete with HA 307-319 for binding to DR1 (HLA-DR1 [2]): Neither |
| IPADLRIISANGCKVDNS [Na+/K+ ATPase 199-216] | 68 ± 9 nM | – |
| Ii 107-120: Ii peptide named in the text as the highest-affinity competitor; probably the Ii 106-120 entry of Table 2 (MRMATPLLMQALPM) | – | relative binding affinity to DR1 among competitor peptides (HLA-DR1 [2]; at first approximation, equivalent to control HA peptide): highest affinity of all the competitor peptides measured |
| KMRMATPLLMQALPM [Ii 106-120] | < 10 nM | – |
| LPKPPKPVSKMRMATPLLMQALPM [Ii 98-121] | 33 ± 5 nM | – |
| RVEYHFLSPYVSPKESP [Transf. Recept. 680-696] | < 10 nM | – |
| SDLSFSKDWSFYL [β2 m 52-64, reference compound] | > 10000 nM | – |
| VGSDWRFLRGYHQYA [HLA-A2 103-117] | 49 ± 3 nM | – |
